The values that follow come from PMC2787200 (Organic letters, 2008).

In the test the target is ERα (Homo sapiens, UniProt P03372). Nature of the test: competitive radiometric binding assay with tritiated estradiol.

A word on the Ki: it is a measure of affinity in units of concentration, obtained from inhibition or displacement. A high value points to lower affinity.

Sequence of ERα (P03372 whole entry): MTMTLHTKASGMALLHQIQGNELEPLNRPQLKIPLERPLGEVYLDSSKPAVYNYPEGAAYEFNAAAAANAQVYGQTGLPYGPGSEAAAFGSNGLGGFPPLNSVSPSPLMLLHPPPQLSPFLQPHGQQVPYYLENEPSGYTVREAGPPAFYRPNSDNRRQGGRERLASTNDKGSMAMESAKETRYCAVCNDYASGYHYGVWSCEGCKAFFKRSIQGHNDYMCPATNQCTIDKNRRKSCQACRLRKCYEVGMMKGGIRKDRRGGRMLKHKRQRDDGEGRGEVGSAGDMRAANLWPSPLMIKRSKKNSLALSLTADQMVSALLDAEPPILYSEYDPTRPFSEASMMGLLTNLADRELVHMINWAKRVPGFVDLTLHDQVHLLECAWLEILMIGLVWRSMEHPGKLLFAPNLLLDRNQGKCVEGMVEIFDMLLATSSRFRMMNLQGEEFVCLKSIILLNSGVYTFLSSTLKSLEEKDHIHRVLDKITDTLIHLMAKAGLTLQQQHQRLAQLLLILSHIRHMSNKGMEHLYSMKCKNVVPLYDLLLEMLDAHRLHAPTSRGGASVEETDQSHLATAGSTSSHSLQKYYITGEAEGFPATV

“Cyclofenil-conjugated SNAPFL [compound 2]”: the Ki was approximately 6 nM.
